Our source for the IC50 values is patent EP4700025A1, “AMIDE COMPOUND, PHARMACEUTICAL COMPOSITION COMPRISING SAME, AND USE THEREOF” (Suzhou Genhouse Bio Co., Ltd., priority 2023, dated 2024).

In data set [1] the target is PRMT5 (Homo sapiens, UniProt O14744). Briefly: Inhibitory activity against enzymatic activity of PRMT5 (fluorescence polarization). It is filed as biochemical. As to conditions: PRMT5 25 nM, SAM 1 µM, polypeptide 1 µM, MTA 2 µM; 37 °C 2 hours. As for the experimental part: The compounds were prepared into 10 mM stock solutions using DMSO, and then 9 concentration gradients (with an initial concentration of 10 µM followed by 1:5 dilution) were prepared using a buffer (50 mM Tris-HCl pH 8.5, 5 mM MgCl2, 4 mM DTT, 0.01% Triton X-100, 0.1 M NaCl, 0.5% DMSO), and each well received 5 µL of the diluted compound solutions. SAM, a polypeptide, and MTA were prepared using a buffer to final concentrations of 1 µM, 1 µM, and 2 µM, respectively, and were added to each well in a total of 5 µL. Meanwhile, an MTA-free group was set as a control. […] Subsequently, a mixture of 2.5 µL of stop buffer A, 2.5 µL of an 8× MT assay mixture (final concentration: 1×), and 24 µg/mL AMP2/GMP2 antibodies (final concentration: 3 µg/mL) was added. The resulting mixture was incubated at room temperature for 1.5 hours, and fluorescence polarization (FP) was measured (Ex 633, Em 647). Meanwhile, negative control wells without protein (Blank) and positive control wells without compound (DMSO) were set. Each experiment was independently repeated three times.
Sequence of PRMT5 (O14744 whole entry): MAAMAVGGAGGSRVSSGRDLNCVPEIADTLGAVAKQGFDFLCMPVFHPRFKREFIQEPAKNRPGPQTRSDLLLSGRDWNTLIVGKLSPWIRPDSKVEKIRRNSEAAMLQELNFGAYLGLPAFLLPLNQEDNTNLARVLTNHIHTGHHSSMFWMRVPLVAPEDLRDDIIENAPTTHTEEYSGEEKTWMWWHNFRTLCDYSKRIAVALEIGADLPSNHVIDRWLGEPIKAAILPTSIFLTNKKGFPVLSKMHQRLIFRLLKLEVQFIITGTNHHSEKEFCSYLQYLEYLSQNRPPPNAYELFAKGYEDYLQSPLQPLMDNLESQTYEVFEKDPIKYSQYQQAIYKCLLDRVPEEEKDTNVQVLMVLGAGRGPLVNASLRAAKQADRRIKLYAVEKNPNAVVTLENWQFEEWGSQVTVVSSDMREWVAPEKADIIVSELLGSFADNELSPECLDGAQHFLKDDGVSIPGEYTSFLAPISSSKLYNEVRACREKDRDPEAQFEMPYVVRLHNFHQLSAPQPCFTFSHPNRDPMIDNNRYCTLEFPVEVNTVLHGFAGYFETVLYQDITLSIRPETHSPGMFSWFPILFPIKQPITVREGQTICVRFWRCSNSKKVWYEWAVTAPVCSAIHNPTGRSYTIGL
Sequence of PRMT5 (Q9BQA1 whole entry partner): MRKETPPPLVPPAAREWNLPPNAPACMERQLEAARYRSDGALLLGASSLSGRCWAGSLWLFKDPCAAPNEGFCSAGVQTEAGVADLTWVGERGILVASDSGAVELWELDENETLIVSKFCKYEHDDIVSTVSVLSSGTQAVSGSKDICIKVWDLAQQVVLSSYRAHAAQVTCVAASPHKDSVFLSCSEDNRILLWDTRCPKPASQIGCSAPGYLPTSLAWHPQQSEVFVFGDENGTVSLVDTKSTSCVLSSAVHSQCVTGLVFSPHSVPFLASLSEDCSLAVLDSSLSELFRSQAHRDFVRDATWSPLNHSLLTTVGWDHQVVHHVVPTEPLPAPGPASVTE
Data processing: The numerical values of each group were recorded for statistical analysis, and the inhibition rate was calculated according to the following formula: inhibition percentage of compound wells (% inh) = [1 - (ave Blank - Cpd well)/(ave Blank - ave DMSO control)] × 100. Note: ave represents the average value, and Cpd represents the numerical value of the wells containing the compound. A sigmoidal dose-inhibition rate curve was plotted and fitted using a nonlinear regression model in the GraphPad Prism 7.0 software, and the IC50 value was calculated. Table 1. Inhibitory activity of compounds against enzymatic activity of PRMT5
A general note: In fluorescence polarisation assays a small probe gives low polarisation when free and higher when bound to something large.

The target of data set [2] is T1, hERG Potassium Ion Channel (Homo sapiens, UniProt Q12809).
T1 construct: expressed in transfected cells; host or cells: HEK293
T1 sequence (Q12809 whole entry): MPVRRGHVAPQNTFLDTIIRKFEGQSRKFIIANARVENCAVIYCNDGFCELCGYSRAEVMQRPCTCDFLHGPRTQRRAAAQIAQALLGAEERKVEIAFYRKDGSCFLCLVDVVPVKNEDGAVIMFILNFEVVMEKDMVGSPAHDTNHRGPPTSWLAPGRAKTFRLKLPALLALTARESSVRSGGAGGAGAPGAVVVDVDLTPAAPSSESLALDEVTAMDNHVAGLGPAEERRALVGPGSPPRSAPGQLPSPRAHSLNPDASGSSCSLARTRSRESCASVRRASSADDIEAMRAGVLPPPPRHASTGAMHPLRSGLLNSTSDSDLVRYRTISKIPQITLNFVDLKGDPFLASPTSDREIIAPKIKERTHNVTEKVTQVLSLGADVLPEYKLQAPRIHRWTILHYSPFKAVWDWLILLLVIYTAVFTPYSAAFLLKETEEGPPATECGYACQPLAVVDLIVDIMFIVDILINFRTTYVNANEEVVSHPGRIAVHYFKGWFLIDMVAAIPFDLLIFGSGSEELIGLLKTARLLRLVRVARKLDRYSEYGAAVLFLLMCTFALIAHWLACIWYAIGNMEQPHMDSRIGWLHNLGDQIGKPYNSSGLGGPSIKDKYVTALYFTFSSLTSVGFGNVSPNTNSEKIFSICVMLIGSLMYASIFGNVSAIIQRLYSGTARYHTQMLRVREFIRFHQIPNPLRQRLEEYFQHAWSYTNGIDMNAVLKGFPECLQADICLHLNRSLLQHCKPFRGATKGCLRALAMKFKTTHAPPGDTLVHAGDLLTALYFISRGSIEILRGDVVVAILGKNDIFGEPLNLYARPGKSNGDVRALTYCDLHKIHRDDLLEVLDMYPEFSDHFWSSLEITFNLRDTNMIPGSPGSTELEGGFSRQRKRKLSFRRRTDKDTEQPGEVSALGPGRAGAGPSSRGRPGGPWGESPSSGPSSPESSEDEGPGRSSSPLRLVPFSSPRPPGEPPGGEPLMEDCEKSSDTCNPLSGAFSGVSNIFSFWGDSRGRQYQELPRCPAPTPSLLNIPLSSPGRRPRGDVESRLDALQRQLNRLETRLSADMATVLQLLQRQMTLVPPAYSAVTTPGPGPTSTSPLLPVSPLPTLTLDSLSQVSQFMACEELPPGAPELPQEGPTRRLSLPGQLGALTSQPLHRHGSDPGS
Briefly: Effect on hERG potassium ion channel (whole-cell patch clamp, HEK293 cells). It is filed as cell-based. As to conditions: human, whole-cell patch clamp (Qpatch), room temperature. How it is done:
HEK293 cells were cultured in a DMEM medium containing 10% fetal bovine serum and 0.8 mg/mL G418 at 37 °C with 5% CO2. The cells were digested by TrypLE™ Express and then centrifuged. The cell density was adjusted to 2 × 10^6 cells/mL. The cells were then gently mixed for 15 to 20 min using a shaker equilibrated at room temperature, and subjected to a patch clamp assay on a machine. The culture medium of the prepared cells was replaced with extracellular fluid. The intracellular fluid and the extracellular fluid were taken from the fluid pool and added to the intracellular fluid pool and the cell and test substance pool of the QPlate chip, respectively. The voltage stimulation of the whole-cell hERG potassium current was recorded by the whole-cell patch clamp, and the experimental data were collected and stored by Qpatch. […] The current detected in compound-free extracellular fluid for each cell served as its own control group, and the detection was repeated twice independently using at least two cells per concentration. […] For data analysis, the current after the action of each drug concentration and the current of the blank control were standardized ((Peak tail currentcompound)/(Peak tail currentvehicle)) [formula] , and then the inhibition rate corresponding to each drug concentration was calculated (1−(Peak tail currentcompound)/(Peak tail currentvehicle)) [formula] . […]
A general note: Block of hERG is tested as a sign of cardiac risk.

Take `Cn1ncc2c(N)nc3cc(F)c(C(=O)N4CCOC[C@@H]4c4ccc5c(c4)OC(F)(F)O5)cc3c21` [Example I-7]: in data set [1], half-maximal inhibition (IC50) was put at 28.4 nM.
On the same count and under the same terms, next, `Cn1ncc2c(N)nc3cc(F)c(C(=O)N(Cc4ccc5c(c4)OC(F)(F)O5)C4CC4)cc3c21` [Example I-16]: 34.6 nM.
For the molecule `Cn1ncc2c(N)nc3cnc(C(=O)N4CCOC[C@@H]4c4ccc5c(c4)OC(F)(F)O5)cc3c21` [Example I-38], the IC50 – broadly, the concentration that gives 50% inhibition – in data set [2] was 22000 nM.
